# Measured values taken from PubChem BioAssay (NCI).
# Several values for one entry are separate records, joined by “and”; a condition that tells them apart may be missing. Identical values can stand only once.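 Protocol summary: plate cells (96-well), add compound at 5 concentrations, incubate 48 h, interpolate endpoints linearly. Abbreviation: GI50, concentration required for 50% inhibition of growth. TGI marks complete inhibition of growth.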
# Assays:
# Test in all cases: DTP human tumour cell line panel, 48 h
# [1] = system: OVCAR-4 ovarian
# [2] = system: HCT-15 colon
# [3] = system: HCC-2998 colon
# [4] = system: SF-295 CNS
# [5] = system: NCI-H23 lung
# [6] = system: PC-3 prostate
# [7] = system: UACC-62 melanoma
# [8] = system: TK-10 renal
# [9] = system: NCI-H460 lung
# [10] = system: HL-60(TB) leukemia
Compound,TGI [1],TGI [2],TGI [3],TGI [4],TGI [5],TGI [6],TGI [7],TGI [8],TGI [9],TGI [10],GI50 [1],GI50 [2],GI50 [3] [µM],GI50 [4],GI50 [5],GI50 [6],GI50 [7],GI50 [8],GI50 [9],GI50 [10]
O=C(O)Cn1ccnc1[N+](=O)[O-],> 100 µM,> 100 µM,> 100 µM,> 100 µM,> 100 µM,> 100 µM,> 100 µM,> 100 µM,> 100 µM,> 100 µM,,,,,,,,,,
COc1ccc2[nH]c(-c3ccccc3)cc2c1,> 100 µM,> 100 µM,> 100 µM,> 100 µM,> 100 µM,> 100 µM,> 100 µM,> 100 µM,> 100 µM,> 100 µM,92.3 µM,> 100 µM,> 100,84.7 µM,97.9 µM,> 100 µM,92.5 µM,> 100 µM,> 100 µM,> 100 µM
CN(C)C(=O)SC1=C(c2c(Cl)cccc2Cl)C(=O)c2ccccc21,10.8 µM,6.28 µM,29.2 µM,33.7 µM,19 µM,22.8 µM,8.24 µM,9.64 µM,37.2 µM,6.53 µM,4.24 µM,2.2 µM,15.6,16.6 µM,7.14 µM,7.95 µM,3.85 µM,3.5 µM,17.4 µM,2.84 µM
CN(C)CCCC1(c2ccc(F)cc2)OCc2cc(-c3cncc4ccccc34)ccc21 (centres undefined),13.7 µM,12.6 µM,3.71 µM,4.2 µM,20.1 µM,15 µM,5.17 µM,12.2 µM,3.49 µM,4.15 µM,3.27 µM,3.32 µM,1.84,2.02 µM,5.73 µM,3.36 µM,2.24 µM,2.83 µM,1.73 µM,1.81 µM
CN(C)CCCN1c2ccccc2Sc2ccc(Cl)cc21,20.7 µM and 22.5 µM,14.3 µM and 16.6 µM,4.14 µM,17.3 µM and 22.9 µM,22.2 µM and 27.6 µM,26.3 µM and 17.3 µM,4.01 µM and 5.11 µM,22.3 µM and 20.3 µM,17.1 µM and 23.8 µM,20.7 µM and 28.6 µM,7.84 µM and 9.23 µM,3.69 µM and 4.7 µM,1.97,4.13 µM and 8.91 µM,8.92 µM and 13.3 µM,11.9 µM and 4.52 µM,1.94 µM and 2.07 µM,9.64 µM and 6.76 µM,4.72 µM and 10.8 µM,4.98 µM and 11.6 µM
CCc1cccc(CC)c1/C=C/c1cncc(C(=O)NC)c1,> 25 µM,> 25 µM,> 25 µM,> 25 µM,> 25 µM,> 25 µM,> 25 µM,> 25 µM,> 25 µM,> 23.8 µM,> 21.4 µM,9.71 µM,11.2,11.6 µM,15.2 µM,13.9 µM,10 µM,> 18.2 µM,9.97 µM,> 13.6 µM
COc1cc(O)c(C(C)=O)c(O)c1,> 100 µM,> 100 µM,> 100 µM,> 100 µM,> 100 µM,> 100 µM,> 100 µM,> 100 µM,> 100 µM,,,,,,,,,,,
Cc1nnc(N=Nc2c(O)[nH]c3ccccc23)n1N,> 100 µM,> 100 µM,> 100 µM,> 100 µM,> 100 µM,,> 100 µM,> 100 µM,> 100 µM,> 100 µM,,,,,,,,,,
Cc1ccc(/C=C2\CNC/C(=C\c3ccc(C)cc3)C2=O)cc1,4.04 µM and 23.1 µM,1.45 µM and 3.62 µM,2.77 µM and 3.07 µM,> 49.2 µM,3.79 µM and 4.1 µM,13.2 µM,4.36 µM,2.2 µM and 13.9 µM,2.62 µM and 9.51 µM,6.46 µM and 2.53 µM,1.89 µM,0.407 µM,1.42,,,,,0.509 µM,1.21 µM,1.41 µM
CCCn1cnc2c(SCc3ccccc3)nc(N)nc21,,> 100 µM,> 100 µM,> 100 µM,> 100 µM,> 100 µM,> 100 µM,> 100 µM,> 100 µM,> 100 µM,,37.8 µM,> 100,32.1 µM,> 100 µM,67.9 µM,> 100 µM,80.5 µM,42.2 µM,65.3 µM
CC(C)(C)[Si](C)(C)OCC1OC(n2cnc3c(N)ncnc32)C(O)C1O (centres undefined),> 100 µM,> 100 µM,,> 100 µM,> 100 µM,> 100 µM,> 100 µM,> 100 µM,> 100 µM,> 100 µM,,,,,,,,,,
C/C(=N\n1c(N)c(C#N)c(-c2ccc(Cl)cc2)c(C#N)c1=O)c1ccncc1,43.6 µM,> 100 µM,> 100 µM,86 µM,45.7 µM,16.8 µM,> 100 µM,38.9 µM,82.5 µM,,11.1 µM,58.2 µM,> 100,4.65 µM,11 µM,2.41 µM,36.4 µM,6.04 µM,22.4 µM,
Nc1ccn([C@@H]2C(F)=C(CO)[C@@H](O)[C@H]2O)c(=O)n1,> 100 µM,> 100 µM,> 100 µM,> 100 µM,> 100 µM,,> 100 µM,> 100 µM,> 100 µM,> 100 µM,23.2 µM,0.545 µM,0.962,4.2 µM,3.84 µM,,3.78 µM,6.73 µM,0.384 µM,0.889 µM
Cc1cc([N+](=O)[O-])c(S(=O)(=O)c2ccccc2)c([N+](=O)[O-])c1,24.5 µM,35.3 µM,35.7 µM,36.9 µM,26.2 µM,,> 44.3 µM,32.4 µM,28.2 µM,10.7 µM,,,,,,,,,,
NC(=O)c1cc(I)ccc1NC(=O)COc1ccccc1,,> 100 µM,> 100 µM,3.39 µM,22.4 µM,> 100 µM,> 100 µM,50.9 µM,> 100 µM,27.8 µM,,0.33 µM,2.5,0.256 µM,0.822 µM,0.471 µM,0.814 µM,5.38 µM,0.433 µM,0.335 µM
